Source: ChEMBL document CHEMBL1201862, “PubChem BioAssay data set” (2004)
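Briefly, cells in 96-well plates were exposed to five compound concentrations for 48 h, and endpoints were estimated by linear interpolation. GI50 is the concentration that inhibits growth by half.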 The source made the active and inactive calls. Cut-off read from the data, not from the text of the source: active = GI50 up to about 1.1 µM and inactive = higher.

How the values were obtained:
Assay in all cases: DTP human tumour cell line panel, 48 h
[1] = system: MOLT-4
[2] = system: MDA-N
[3] = system: U-251
[4] = system: NCI-H23
[5] = system: SW-620
[6] = system: EKVX
[7] = system: SNB-75
[8] = system: COLO 205
[9] = system: TK-10
[10] = system: KM12
[11] = system: LOX IMVI
[12] = system: ACHN
[13] = system: HL-60
[14] = system: T47D
[15] = system: HT-29
[16] = system: SK-OV-3
[17] = system: SNB-19
[18] = system: CAKI-1
[19] = system: K562
[20] = system: UACC-62

Measured: GI50

Cc1ccc(I)cc1N=C=S
inactive: [1] 20.2 µM | [2] 27.9 µM | [3] 19.5 µM | [4] 19.9 µM | [5] 32.7 µM | [6] 23.7 µM | [7] 21.2 µM | [8] 18.2 µM | [9] 36 µM | [10] 17.3 µM | [11] 22.2 µM | [12] 22.8 µM | [13] 21.6 µM | [14] 16.1 µM | [15] 23.5 µM | [16] 37.3 µM | [17] 23.5 µM | [18] 24.9 µM | [19] 23 µM | [20] 17.3 µM

O=C1C=CC(=O)C(CNc2ccc(C(=O)OC34CC5CC(CC(C5)C3)C4)cc2)=C1Br
inactive: [1] 2.24 µM | [2] 15.6 µM | [3] 4 µM | [4] 7.35 µM | [5] 18.2 µM | [6] 6.46 µM | [7] 6.15 µM | [8] 7.29 µM | [9] 13.9 µM | [10] 5.62 µM | [11] 9.48 µM | [12] 14.6 µM | [13] 1.66 µM | [14] 3.33 µM | [15] 5.01 µM | [16] 17.3 µM | [17] 15.6 µM | [18] 3.52 µM | [19] 5.58 µM | [20] 7.38 µM

CC(C)(C)N/N=C(\C(=O)Nc1ccc([N+](=O)[O-])cc1[N+](=O)[O-])c1nc2ccc([N+](=O)[O-])cc2nc1O
inactive: [1] 35.2 µM | [2] > 100 µM | [3] > 100 µM | [4] 86.1 µM | [5] > 100 µM | [6] > 100 µM | [7] > 100 µM | [8] 24.5 µM | [10] 34.4 µM | [11] 58.7 µM | [12] > 100 µM | [13] 47.3 µM | [14] 36.3 µM | [15] > 100 µM | [16] > 100 µM | [17] > 100 µM | [18] > 100 µM | [19] 37 µM | [20] > 100 µM
